Data reported in US10077290B2, “Stabilized antiviral fusion helices” (priority 2011, dated 2018).
Entries after “also recorded” stand apart in the source; their conditions may differ.

Columns and labels:
[1] = tested on: RSV-A2; experiment: Infection of A549 cells at 0.1 MOI, Hep-2 plaque assay titers: RSV-A2; format: cell-based, Respiratory Syncytial Virus (RSV); conditions: 5 μM peptide
Description: (§1) In this study A549 cells were plated in a 24 well plate at 30,000 cells/well. The following day, the cells were treated with 5 μM of the indicated stapled SAHF peptide or volume-equivalent DMSO vehicle, followed by infection with RSV-A2, RSV 2-20, or RSV-rA2Line19F within 30 minutes at 0.1 MOI. The supernatant was collected 24 h post infection, and applied to Hep-2 cells that were plated the day prior on a 24 well plate at 60,000 cells/well. Plaque assays were performed on Hep-2 cells using the collected supernatant and titers determined at 5 days post infection of Hep-2 cells. The results of this analysis are shown in FIGS. 15A, 15B and 15C in which titers are shown as pfu/ml and the values represent the mean+/−SEM for two independent experiments (***p<0.001; ****p<0.0001).

[2] = tested on: RSV 2-20; experiment: Infection of A549 cells at 0.1 MOI, Hep-2 plaque assay titers: RSV 2-20; format: cell-based, Respiratory Syncytial Virus (RSV); conditions: 5 μM peptide
Description: as §1

[3] = tested on: RgRSV; experiment: Intranasal RgRSV infection of BALB/c mice after intranasal peptide; format: in vivo
Description: One hour post treatment, three groups of mice were inoculated with a single dose of RgRSV at 1×10^6 pfu/mouse, with the fourth group receiving a mock inoculation. Mice were sacrificed at 24 hours post infection and the noses harvested, sectioned, stained with DAPI and imaged with an Olympus fluorescent microscope (FIG. 16A; original magnification 20×). Image J analysis was performed on the acquired images (FIG. 16B) and average GFP positive (green) and DAPI positive (blue) cells were calculated from eight images (4 sections) per mouse (bars represent percent GFP positive of total DAPI-positive cells present in the images and error bars represent mean+/−SEM. *, p<0.001). FIG. 16C depicts the results of hematoxylin and eosin staining of the nose sections (original magnification 20×, insets 100×) In FIG. 16C black arrows highlight thickened mucosa.

[4] = tested on: RSV-rA2Line19F; experiment: Infection of A549 cells at 0.1 MOI, Hep-2 plaque assay titers: RSV-rA2Line19F; format: cell-based, Respiratory Syncytial Virus (RSV); conditions: 5 μM peptide
Description: as §1

[5] = tested on: RSV-A2; experiment: RSV-A2 lung infection of BALB/c mice after prophylactic intranasal peptide; format: in vivo; conditions: 125 μM intranasally, dosing and inoculation repeated at 16 hours, 4 days after second infection
Description: One hour post treatment, three groups of mice were inoculated with a single dose of RSV-A2 at 1×10^6 pfu/mouse. Peptide dosing and viral inoculation was repeated 16 hours post-infection. The fourth group was treated with volume-equivalent vehicle and mock-infected. Two mice from each group were sacrificed 4 days after the second infection and left lung lobes harvested after 1% paraformaldehyde perfusion, followed by cryopreservation in OCT. Sections (5 μm) were treated with 1:1000 dilution of rabbit anti-RSV polyclonal antibody (Millipore) overnight followed by anti-rabbit antibody conjugated to Alexa Fluor 555 (1:400) (red) (Molecular Probes) for 1 h. Sections were washed and mounted with medium containing DAPI (blue) and viewed with an Olympus fluorescent microscope (FIG. 17A; original magnification 20×). Image J analysis was performed on the acquired images and the percentage RSV-positive cells (red) of total DAPI-positive cells (blue) determined from 8 images (4 sections) per mice (FIG. 17B; .error bars represent mean+/−SEM; *, p<0.0001). Four days after the second infection, bronchoalveolar lavage (BAL) was performed on one mouse from each group and BAL supernatant used to determine the viral titers by plaque assay on Hep-2 cells (FIG. 17C; error bars represent mean+/−SEM of plaques counted per in vivo specimen; *, p<0.05). Also at four days after the second infection, cranial and caudal lobes of the right lung from two mice per group were snap frozen on dry ice. A lung homogenate was generated from the cranial lobe and supernatant subjected to viral titer determination (log 10 pfu/ml) (FIG. 17D; error bars represent mean+/−SEM; *, p<0.05). Total RNA was isolated from the caudal lobe of the right lung and quatitative RT-PCR was performed for the RSV-N gene. The results of this analysis are presented in FIG. 17E in which the bar graphs represent the RSV-N gene expression normalized to the mock-infected tissue.

[6] = tested on: RSV-A2; experiment: RSV-A2 infection of A549 cells at 1 MOI, Hep-2 plaque assay titers; format: cell-based, Respiratory Syncytial Virus (RSV); conditions: 5 μM peptide
Description: In this study A549 cells were plated in a 24 well plate at 30,000 cells/well. The following day, the cells were treated with 5 μM of the indicated stapled SAHF peptide or volume-equivalent DMSO vehicle, followed by RSV-A2 infection at 1 MOI. The cells were infected for 2 h, and the infection medium replaced with 400 μl of DMEM containing 5% FBS and 5 μM of the indicated stapled SAHF peptide. Cells were harvested along with the supernantant 24 h post infection, vortexed for 10 sec, and the supernatant collected, leaving the cell pellet behind. Hep-2 cells were plated on a 24 well plate at 60,000 cells/well the day before use. Plaque assay was performed on Hep-2 cells using the collected supernatant and titers determined at 5 days post infection of Hep-2 cells. The results of this analysis are shown in FIG. 14 in which titers are shown as log 10 pfu/ml and the values represent the mean+/−SEM for two independent experiments (***p<0.001; ****p<0.0001).

## FD8SISQVNXKINQSLAFI8KSDELLXNVNAGKST (FDXSISQVNXKINQSLAFIXKSDELLXNVNAGKST; two hydrocarbon staples; MOD_RES (3)..(3) Any amino acid; (3)..(10) Crosslink between residues; MOD_RES (10)..(10) Any amino acid; MOD_RES (20)..(20) Any amino acid; (20)..(27) Crosslink between residues; MOD_RES (27)..(27) Any amino acid) [SAHF-H, J]
[1]
  viral infection by RSV-A2 (titers): prevents viral infection
[2]
  viral infection by RSV 2-20 (titers): prevents viral infection
[3]; 125 μM intranasally one hour before RgRSV, 24 hours post infection
  intranasal RgRSV infection (percent GFP positive cells in nose sections): blocks intranasal RgRSV infection
[3]; RgRSV-infected, 125 μM intranasally
  inflammation in nose sections (hematoxylin and eosin staining): comparatively decreased inflammatory cells
[4]
  viral infection by RSV-rA2 Line 19F (titers): prevents viral infection
[5]
  RSV-A2 lung infection, by each measure (RSV-positive cells, BAL and lung homogenate titers, RSV-N gene): inhibited RSV infection; also recorded: inhibits RSV-A2 lung infection
[6]
  RSV-A2 infection (viral titers): inhibit RSV-A2 infection of A549 cells
